# US20230416205A1, “COMPOUNDS, COMPOSITIONS, AND METHODS” (Denali Therapeutics Inc, priority 2020, published 2023)
# Read-outs that look alike come from different tables or passages of the source.
# Test system: NLRP3
# Test: IL-1β secretion assay in PMA-differentiated, LPS/nigericin-stimulated THP-1 cells (384-well, ELISA read-out)
# Assay type: cell-based, human
# Summary of the method: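 Secreted IL-1β quantified by capture ELISA from supernatants of PMA-differentiated THP-1 cells (30K per well). Sequence: LPS 25 ng/mL priming 2 h, compound 1 h, nigericin 2 h; dose-responses normalized between high (LPS plus 5 μM nigericin) and low (LPS alone) controls.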
# [1] = Homo sapiens, THP-1, Table 4, IL-1β secretion, LPS/nigericin-stimulated THP-1 cells, read-out: IC50
# [2] = IL-1β secretion, PMA-differentiated THP-1 cells, LPS then nigericin stimulation, ELISA read at 450 nm, read-out: Activity
# [3] = Table 4, IL-1β secretion, LPS/nigericin-stimulated THP-1 cells, read-out: IC50
# [4] = Homo sapiens, THP-1, IL-1β secretion, PMA-differentiated THP-1 cells, LPS then nigericin stimulation, ELISA read at 450 nm, read-out: Activity
SMILES,IC50 [1] [µM],IC50 [2] [µM],IC50 [3] [µM],IC50 [4] [µM]
"O=C(CN1C[C@]2(C[C@H]2F)c2cc(Br)ccc2C1=O)Nc1ncc(C(F)(F)F)cn1 [Example 308, 2-[(2′R,4S)-6-bromo-2′-fluoro-1-oxospiro[3H-isoquinoline-4,1′-cyclopropane]-2-yl]-N-[5-(trifluoromethyl)pyrimidin-2-yl]acetamide]",0.025,–,–,–
"C[C@H]1C[C@@]12CN(CC(=O)Nc1ncc(F)cn1)C(=O)c1ccc(Br)cc12 (single isomer, unassigned) [Example 282, 2-[(2′s,4r)-6-bromo-2′-methyl-1-oxospiro[3H-isoquinoline-4,1′-cyclopropane]-2-yl]-N-(5-fluoropyrimidin-2-yl)acetamide]",–,< 10,1.05,–
"N#Cc1cnc(NC(=O)CN2CC3(CC3)c3cc(Br)ccc3C2=O)c(Cl)c1 [Example 395, 2-(6-bromo-1-oxospiro[3H-isoquinoline-4,1′-cyclopropane]-2-yl)-N-(3-chloro-5-cyanopyridin-2-yl)acetamide]",1.38,–,–,–
"O=C(CN1CC2(CC2(F)F)c2cc(Br)ccc2C1=O)Nc1ncc(F)cn1 (single isomer, unassigned) [Example 291, 2-[6-bromo-1′,1′-difluoro-1-oxospiro[3H-isoquinoline-4,2′-cyclopropane]-2-yl]-N-(5-fluoropyrimidin-2-yl)acetamide]",–,< 10,0.037,–
"O=C(CN1CC2(CC2)c2c(ccc(OC(F)F)c2F)C1=O)Nc1ncc(F)cn1 [Example 310, 2-[6-(difluoromethoxy)-5-fluoro-1-oxospiro[3H-isoquinoline-4,1′-cyclopropane]-2-yl]-N-(5-fluoropyrimidin-2-yl)acetamide]",1.06,–,–,–
"O=C(CN1CC2(CC2)c2cc([C@@]3(F)C[C@H]3F)ccc2C1=O)Nc1ncc(F)cn1 (single isomer, unassigned) [Example 253, 2-[6-[(1r,2s)-1,2-difluorocyclopropyl]-1-oxospiro[3H-isoquinoline-4,1′-cyclopropane]-2-yl]-N-(5-fluoropyrimidin-2-yl)acetamide]",0.597,–,–,< 10
"CC1(O)CC(NC(=O)CN2CC3(CC3(F)F)c3c(ccc(Br)c3F)C2=O)C1 (single isomer, unassigned) [Example 325, N-(3-cis-hydroxy-3-methylcyclobutyl)-2-[6-bromo-1′,1′,5-trifluoro-1-oxospiro[3H-isoquinoline-4,2′-cyclopropane]-2-yl]acetamide]",–,–,> 1,–
"O=C(CN1CC2(CC2)c2cc(Br)ccc2C1=O)Nc1ccc2cnccc2n1 [Example 206, 2-(6-bromo-1-oxospiro[3H-isoquinoline-4,1′-cyclopropane]-2-yl)-N-(1,6-naphthyridin-2-yl)acetamide]",1.26,–,–,< 10
"O=C(CN1C[C@@]2(C[C@@H]2Cl)c2cc(Br)ccc2C1=O)Nc1ncc(F)cn1 (single isomer, unassigned) [Example 284, 2-[(2′r,4s)-6-bromo-2′-chloro-1-oxospiro[3H-isoquinoline-4,1′-cyclopropane]-2-yl]-N-(5-fluoropyrimidin-2-yl)acetamide]",–,< 10,0.05,–
"Cc1c[nH]c(=O)c(NC(=O)CN2CC3(CC3)c3cc(Br)ccc3C2=O)c1 [Example 154, 2-(6-bromo-1-oxospiro[3H-isoquinoline-4,1′-cyclopropane]-2-yl)-N-(5-methyl-2-oxo-1H-pyridin-3-yl)acetamide]",4.33,–,–,< 10
O=C(CN1C[C@]2(C[C@H]2F)c2cc(Br)ccc2C1=O)Nc1ncccn1 [Example 109],0.036,–,–,< 10
"O=C(CN1CC2(CC2)c2nc(C3CC3)ccc2C1=O)Nc1ncc(F)cn1 [Example 311, 2-(2-cyclopropyl-5-oxospiro[7H-1,6-naphthyridine-8,1′-cyclopropane]-6-yl)-N-(5-fluoropyrimidin-2-yl)acetamide]",1.41,–,–,–
"C[C@H]1C[C@]12CN(CC(=O)Nc1ncc(F)cn1)C(=O)c1ccc(Br)cc12 (single isomer, unassigned) [Example 279, 2-[(2′s,4s)-6-bromo-2′-methyl-1-oxospiro[3H-isoquinoline-4,1′-cyclopropane]-2-yl]-N-(5-fluoropyrimidin-2-yl)acetamide]",–,–,22.4,> 15
"O=C(CN1CC2(CC2)c2cc(Br)ccc2C1=O)Nc1ccc2nc[nH]c2c1 [Example 169, N-(3H-benzimidazol-5-yl)-2-(6-bromo-1-oxospiro[3H-isoquinoline-4,1′-cyclopropane]-2-yl)acetamide]",0.605,–,–,< 10
"O=C(CN1CC2(CC2)c2cc(Br)ccc2C1=O)NCCC(F)(F)F [Example 133, 2-(6-bromo-1-oxospiro[3H-isoquinoline-4,1′-cyclopropane]-2-yl)-N-(3,3,3-trifluoropropyl)acetamide]",9.24,–,–,< 10
"O=C(CN1CC2(CC2)c2cc(OC(F)F)ccc2C1=O)Nc1ncccn1 [Example 33, N-(pyrimidin-2-yl)-2-[6-(difluoromethoxy)-1-oxospiro[3H-isoquinoline-4,1′-cyclopropane]-2-yl]acetamide]",1.28,–,–,< 10

SMILES,IC50 [1] [µM],IC50 [2] [µM],IC50 [3] [µM],IC50 [4] [µM]
"O=C(CN1CC2(CC2)c2cc(Br)ccc2C1=O)Nc1ncc(-n2cccn2)cn1 [Example 48, 2-(6-bromo-1-oxospiro[3H-isoquinoline-4,1′-cyclopropane]-2-yl)-N-(5-pyrazol-1-ylpyrimidin-2-yl)acetamide]",0.238,–,–,< 10
"O=C(CN1CC2(CC2)c2cc(Br)ccc2C1=O)NCC1CCC1 [Example 164, 2-(6-bromo-1-oxospiro[3H-isoquinoline-4,1′-cyclopropane]-2-yl)-N-(cyclobutylmethyl)acetamide]",6.01,–,–,< 10
"Cn1ccc(N2CCC(NC(=O)CN3CC4(CC4)c4cc(Br)ccc4C3=O)C2)n1 (stereo not drawn) [Example 415, 2-(6-bromo-1-oxospiro[3H-isoquinoline-4,1′-cyclopropane]-2-yl)-N-[1-(1-methylpyrazol-3-yl)pyrrolidin-3-yl]acetamide]",21,–,–,–
"O=C(CN1CC2(CC2)c2cc(Br)ccc2C1=O)Nc1ncc2c(n1)CCOC2 [Example 331, 2-(6-bromo-1-oxospiro[3H-isoquinoline-4,1′-cyclopropane]-2-yl)-N-(7,8-dihydro-5H-pyrano[4,3-d]pyrimidin-2-yl)acetamide]",0.97,–,–,–
"Cc1cnc(NC(=O)CN2C[C@@]3(C[C@@H]3F)c3cc(C(F)(F)F)ccc3C2=O)nc1 (single isomer, unassigned) [Example 245, 2-[(2′s,4r)-2′-fluoro-1-oxo-6-(trifluoromethyl)spiro[3H-isoquinoline-4,1′-cyclopropane]-2-yl]-N-(5-methylpyrimidin-2-yl)acetamide]",–,< 10,0.938,–
"COc1ccnc(NC(=O)CN2CC3(CC3)c3cc(Br)ccc3C2=O)n1 [Example 338, 2-(6-bromo-1-oxospiro[3H-isoquinoline-4,1′-cyclopropane]-2-yl)-N-(4-methoxypyrimidin-2-yl)acetamide]",1.58,–,–,–
O=C(CN1CC2(CC2)c2cc(Br)ccc2C1=O)Nc1cn2ccccc2n1 [Example 385],1.82,–,–,–
"O=C(CN1CC2(CC2)c2cc(Br)ccc2C1=O)Nc1nc2ccccn2c1F [Example 343, 2-(6-bromo-1-oxospiro[3H-isoquinoline-4,1′-cyclopropane]-2-yl)-N-(3-fluoroimidazo[1,2-a]pyridin-2-yl)acetamide]",7.5,–,–,–
"O=C(CN1CC2(CC2)c2cc(Br)ccc2C1=O)NC12CCC(CC1)CC2 [Example 56, N-(1-bicyclo[2.2.2]octanyl)-2-(6-bromo-1-oxo-spiro[3H-isoquinoline-4,1′-cyclopropane]-2-yl)acetamide]",7.92,–,–,< 10
"O=C(CN1CC2(CC2)c2cc(Br)ccc2C1=S)Nc1ncc(F)cn1 [Example 102, 2-(6-bromo-1-sulfanylidenespiro[3H-isoquinoline-4,1′-cyclopropane]-2-yl)-N-(5-fluoropyrimidin-2-yl)acetamide]",0.169,–,–,< 10
"O=C(CN1CC2(CC2)c2cc(Br)ccc2C1=O)Nc1ccc(F)cn1 [Example 208, 2-(6-bromo-1-oxospiro[3H-isoquinoline-4,1′-cyclopropane]-2-yl)-N-(5-fluoropyridin-2-yl)acetamide]",0.709,–,–,< 10
"O=C(CN1CC2(CC2)c2cc(Br)ccc2C1=O)Nc1ncc(C(F)(F)F)cn1 [Example 193, 2-(6-bromo-1-oxospiro[3H-isoquinoline-4,1′-cyclopropane]-2-yl)-N-[5-(trifluoromethyl)pyrimidin-2-yl]acetamide]",0.24,–,–,< 10
"Cc1nc2ccc(NC(=O)CN3CC4(CC4)c4cc(Br)ccc4C3=O)cc2s1 [Example 143, 2-(6-bromo-1-oxospiro[3H-isoquinoline-4,1′-cyclopropane]-2-yl)-N-(2-methyl-1,3-benzothiazol-6-yl)acetamide]",1.41,–,–,< 10
"O=C(CN1CC2(CC2)c2cc(Br)ccc2C1=O)Nc1ccc2scnc2c1 [Example 146, N-(1,3-benzothiazol-5-yl)-2-(6-bromo-1-oxospiro[3H-isoquinoline-4,1′-cyclopropane]-2-yl)acetamide]",2.74,–,–,< 10
"O=C(CN1CC2(CC2)c2cc(C3(F)CC3)ccc2C1=O)Nc1ncc(F)cn1 [Example 255, 2-[6-(1-fluorocyclopropyl)-1-oxospiro[3H-isoquinoline-4,1′-cyclopropane]-2-yl]-N-(5-fluoropyrimidin-2-yl)acetamide]",0.148,–,–,< 10
O=C(CN1C[C@]2(C[C@H]2F)c2cc(Cl)ccc2C1=O)Nc1ncc(F)cn1 [Example 276],0.079,–,–,< 10
